Data on 1 substance can be found in publication PMC4235525, “Anticancer Properties of Novel Rhenium Pentylcarbanato Compounds against MDA-MB-468(HTB-132) Triple Node Negative Human Breast Cancer Cell Lines” (British journal of pharmaceutical research, 2015).

For assay [1], the system named is MDA-MB-468 (HTB-132) triple node negative breast cancer cell lines. Put plainly: Trypan blue cytotoxicity assay, 48 h treatment. In kind it is cell-based, human. The note with it: drugs in DMSO, read-out: IC-50 (mean ± S.D.), concentration required to have 50% cell-growth inhibition, Breast Cancer HTB-132 cell lines. As to the method: MDA-MB-468 (HTB-132) triple node negative breast cancer cell lineswere obtained from ATCC (USA), cultured inL-15 medium supplemented with 10% Fetal Bovine Serum(FBS), penicillin and streptomycin antibiotics and grownat 37°C inan incubator. The mouse glomerular mesangialcell line was a kind gift from Dr. C. Reilly of Virginia Tech University, USA. These cells were cultured in RPMI-1640 medium supplemented with 10%FBS, penicillin and streptomycin antibiotics and grown at 37°C in a carbon dioxide incubator.
HTB-132 breast cancer cell lines were grown in six well plates to confluency, the cells were then kept in serum-free medium overnight and then treated with each of drugsPC1-6 (dissolved in DMSO) along with untreated cells and DMSO vehicular control for 48 hours. […] Atrypan blue assay was done to measure cell viability using a standard hemocytometer and light microscope.
Each experiment was repeated three times and statistical t test was used to analyze the results with P<0.05.

Assay [2] has as its system Balb/c mouse kidney (mouse glomerular mesangial) cell line. Put plainly: Trypan blue cytotoxicity (nephrotoxicity) in mouse kidney cells. In kind it is cell-based. The note with it: 48 hours, trypan blue assay, drugs in DMSO; read-out: IC-50 (mean ± S.D.), concentration required to have 50% cell-growth inhibition, Mouse Mesangial cell lines. As to the method: Aim To study the efficacy of novel rhenium compounds to treat triple node negative breast cancer. Place and Duration Six (6) novel rhenium pentycarbanato compounds (PC1-6) were synthesized and triple node negative breast cancer cell lines HTB-132 and Balb/c mouse kidney cell lines were treated with each of them for 48 hours. The results were analyzed by a common trypan blue cell death assay system and statistically analyzed. Place and Duration The compounds were synthesized, analyzed and evaluated at the Department of Chemistryof Morgan State University, Baltimore, Maryland and the Pharmaceutical Sciences Department of Elizabeth City State University campus of the University of North Carolina system. Methodology The novel rhenium compounds were synthesized from one-pot reactions of Re2(CO)10 with the corresponding α-diimine ligands in 1-pentanol.The compounds were characterized spectroscopically. The cell lines were cultured by standard cell culture procedure and treated with each of the six compounds in DMSO for 48 hours with a negative control and a DMSO vehicular control along with a cisplatin positive control.The cytotoxicity was evaluated by standard trypan blue assay and the results were statistically analyzed. […] Conclusion The novel rhenium compounds PC 1-6 can potentially find applications in the treatment of highly malignant triple node negative breast cancer. […]

As to cis-[Pt (NH3)2Cl2] [Cisplatin], the IC50 worked out at 5000 ± 2500 nM in assay [1] and 1000 ± 2500 nM in assay [2].
